Data as given in patent publication US7288659B2, “Acylaminothiazole derivatives, their preparation and therapeutic use” (Sanofi-Aventis, priority 2001, dated 2007).

Compound | melting point
CCC[C@H](NC(=O)[C@@H](O)c1cc(F)cc(F)c1)C(=O)Nc1ncc(-c2ccccc2COC2CCCCC2)s1 [compound 55, (2S)-N-(5-{2-[(cyclohexyloxy)methyl]phenyl}-1,3-thiazol-2-yl)-2-{[(2S)-2-(3,5-difluorophenyl)-2-hydroxyacetyl]amino}pentanamide] | 141 °C
CCC[C@H](NC(=O)[C@@H](O)c1cc(F)cc(F)c1)C(=O)Nc1nc(C)c(-c2ccccc2COC2CCCCC2)s1 [compound 57, (2S)-N-(5-{2-[(cyclohexyloxy)methyl]phenyl}-4-methyl-1,3-thiazol-2-yl)-2-{[(2S)-2-(3,5-difluorophenyl)-2-hydroxyacetyl]amino}pentanamide] | 115 °C
CCC[C@H](NC(=O)Cc1cc(F)cc(F)c1)C(=O)Nc1nc(CC)c(-c2ccccc2COC2CCCCC2)s1 [compound 59, (2S)-N-(5-{2-[(cyclohexyloxy)methyl]phenyl}-4-ethyl-1,3-thiazol-2-yl)-2-{[2-(3,5-difluorophenyl)-acetyl]amino}pentanamide] | 80 °C
CCc1nc(NC(=O)[C@H](C)NC(=O)Cc2cc(F)cc(F)c2)sc1-c1ccccc1COC1CCCCC1 [compound 62, (2S)-N-(5-{2-[(cyclohexyloxy)methyl]phenyl}-4-ethyl-1,3-thiazol-2-yl)-2-{[2-(3,5-difluorophenyl)-acetyl]amino}propanamide] | 70 °C
CCC[C@H](NC(=O)C(F)c1cc(F)cc(F)c1)C(=O)Nc1ncc(-c2ccccc2COC2CCCCC2)s1 (stereo partly drawn) [compound 67, (2S)-N-(5-{2-[(cyclohexyloxy)methyl]phenyl}-1,3-thiazol-2-yl)-2-{[2-(3,5-difluorophenyl)-2-fluoroacetyl]amino}pentanamide] | 91 °C
CC[C@H](NC(=O)Cc1cc(F)cc(F)c1)C(=O)Nc1ncc(-c2ccccc2COC(C)C)s1 [compound 70, (2S)-2-{[2-(3,5-difluorophenyl)acetyl]amino}-N-{5-[2-(isopropoxymethyl)phenyl]-1,3-thiazol-2-yl}butanamide] | 73 °C
CCC[C@H](NC(=O)Cc1cc(F)cc(F)c1)C(=O)Nc1nc(C)c(-c2ccccc2COC(C)C)s1 [compound 71, (2S)-2-{[2-(3,5-difluorophenyl)acetyl]amino}-N-{5-[2-(isopropoxymethyl)phenyl]-4-methyl-1,3-thiazol-2-yl}pentanamide] | 66.6 °C

Now from value to compound:

melting point | Compound
91.6 °C | C[C@H](NC(=O)Cc1cc(F)cc(F)c1)C(=O)Nc1ncc(-c2ccccc2CSC2CCCCC2)s1 [compound 54, (2S)-N-(5-{2-[(cyclohexylsulfanyl)methyl]phenyl}-1,3-thiazol-2-yl)-2-{[2-(3,5-difluorophenyl)acetyl]-amino}propanamide]
112 °C | CCC[C@H](NC(=O)[C@H](O)c1cc(F)cc(F)c1)C(=O)Nc1ncc(-c2ccccc2COC2CCCCC2)s1 [compound 56, (2S)-N-(5-{2-[(cyclohexyloxy)methyl]phenyl}-1,3-thiazol-2-yl)-2-{[(2R)-2-(3,5-difluorophenyl)-2-hydroxyacetyl]amino}pentanamide]
77 °C | CCC[C@H](NC(=O)C(=O)c1cc(F)cc(F)c1)C(=O)Nc1ncc(-c2ccccc2COC2CCCCC2)s1 [compound 60, (2S)-N-(5-{2-[(cyclohexyloxy)methyl]phenyl}-1,3-thiazol-2-yl)-2-{[2-(3,5-difluorophenyl)-2-oxoacetyl]-amino}pentanamide]
74 °C | CCC[C@H](NC(=O)Cc1cc(F)cc(F)c1)C(=O)Nc1nc(C(C)C)c(-c2ccccc2COC2CCCCC2)s1 [compound 63, (2S)-N-(5-{2-[(cyclohexyloxy)methyl]phenyl}-4-isopropyl-1,3-thiazol-2-yl)-2-{[2-(3,5-difluorophenyl)-acetyl]amino}pentanamide]
139 °C | CCC[C@H](NC(=O)C(F)c1cc(F)cc(F)c1)C(=O)Nc1ncc(-c2ccccc2COC2CCCCC2)s1 (stereo partly drawn) [compound 64, (2S)-N-(5-{2-[(cyclohexyloxy)methyl]phenyl}-1,3-thiazol-2-yl)-2-{[2-(3,5-difluorophenyl)-2-fluoroacetyl]amino}pentanamide]
79 °C | CC[C@H](NC(=O)Cc1cc(F)cc(F)c1)C(=O)Nc1nc(C)c(-c2ccccc2COC(C)C)s1 [compound 69, (2S)-2-{[2-(3,5-difluorophenyl)acetyl]amino}-N-{5-[2-(isopropoxymethyl)phenyl]-4-methyl-1,3-thiazol-2-yl}butanamide]
74 °C | CCC[C@H](NC(=O)Cc1cc(F)cc(F)c1)C(=O)Nc1ncc(-c2ccccc2COC(C)C)s1 [compound 72, (2S)-2-{[2-(3,5-difluorophenyl)acetyl]amino}-N-{5-[2-(isopropoxymethyl)phenyl]-1,3-thiazol-2-yl}pentanamide]
149 °C | COC1CCC(OCc2ccccc2-c2cnc(NC(=O)[C@H](C)NC(=O)Cc3cc(F)cc(F)c3)s2)CC1 (stereo partly drawn) [compound 73, (2S)-2-{[2-(3,5-difluorophenyl)acetyl]amino}-N-[5-(2-{[(4-methoxycyclohexyl)oxy]methyl}phenyl]-1,3-thiazol-2-yl}propanamide]
68 °C | CCC[C@H](NC(=O)C(F)(F)c1cc(F)cc(F)c1)C(=O)Nc1ncc(-c2ccccc2COC2CCCCC2)s1 [compound 74, (2S)-N-(5-{2-[(cyclohexyloxy)methyl]phenyl}-1,3-thiazol-2-yl)-2-{[2-(3,5-difluorophenyl)-2,2-difluoroacetyl]amino}pentanamide]
